According to patent publication EP1200395B1, “UREA DERIVATIVES AS INHIBITORS OF CCR-3 RECEPTOR” (KIRIN BEER KABUSHIKI KAISHA, priority 1999, dated 2001):
Structures can show the parent of a compound that is named as a salt.

Target: T1, CCR-3 (Homo sapiens, UniProt P51677)
T1 sequence (P51677 1-355): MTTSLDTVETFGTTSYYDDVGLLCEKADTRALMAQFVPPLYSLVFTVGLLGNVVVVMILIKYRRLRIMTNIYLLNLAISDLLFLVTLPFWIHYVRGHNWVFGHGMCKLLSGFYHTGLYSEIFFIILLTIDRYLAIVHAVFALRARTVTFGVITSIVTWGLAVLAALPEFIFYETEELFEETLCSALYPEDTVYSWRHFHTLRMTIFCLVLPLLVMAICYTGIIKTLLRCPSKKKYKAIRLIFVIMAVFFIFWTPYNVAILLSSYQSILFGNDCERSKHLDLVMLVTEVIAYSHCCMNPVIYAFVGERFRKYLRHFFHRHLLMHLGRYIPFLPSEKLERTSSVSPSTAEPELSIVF
Experiment: Eotaxin-induced chemotaxis of CCR-3 transfectant cells (CCR3/U937)
Assay type: cell-based
Design: expressed in transfected cells; host or cells: U937
Conditions: 10 µM test compound; eotaxin 1 x 10^-9 M; CCR3/U937 cells (Table 3a)

| Chemotaxis Assay 10 µM (inhibition %) [%] | Compound |
| --- | --- |
| 100 | COC(=O)CCCN(CCCNC(=O)Nc1ccc(Cl)cc1)C1CCCc2ccccc21 (stereo not drawn) [Compound 185] |
| 86 | O=C(NCCCN(CCCO)CCc1ccc(Cl)cc1)Nc1ccccc1 [Compound 219] |
| 96 | COC(=O)CCCN(CCCNC(=O)Nc1ccc(Br)cc1)CCc1ccccc1 [Compound 42] |
| 100 | COc1ccc(NC(=O)NCCCN(CCCC(=O)O)C2CCCc3ccccc32)cc1 (stereo not drawn) [Compound 88] |
| 64 | O=C(O)CCCN(CCCNC(=O)Nc1ccc(Br)cc1)Cc1ccc(C(F)(F)F)cc1 [Compound 71] |

Same assay, conditions: 10 µM test compound; eotaxin 1 x 10^-9 M; CCR3/U937 cells (Table 3c)

| Chemotaxis Assay 10 µM (inhibition %) [%] | Compound |
| --- | --- |
| 100 | CC[N+](CCCNC(=O)Nc1ccccc1)(CCc1ccc(Cl)cc1)Cc1ccccc1C.[I-] (stereo not drawn) [compound 346] |
| 97 | CC[N+](CCCNC(=O)Nc1ccc(Br)cc1)(CCCC(=O)OC)C(C)c1ccccc1.[I-] (stereo not drawn) [compound 312] |
| 100 | CC[N+](CCCNC(=O)Nc1ccccc1)(CCc1ccc(Cl)cc1)Cc1ccc(C)cc1.[I-] (stereo not drawn) [Compound 297] |

Same assay, conditions: U-937; 10 µM test compound; eotaxin 1 x 10^-9 M; CCR3/U937 cells (Table 3a)

| inhibition at 10 µM [%] | Compound |
| --- | --- |
| 100 | CCN(CCCNC(=O)Nc1ccc([N+](=O)[O-])cc1)CCc1ccc(Cl)cc1 [Compound 2, N-(4-Nitrophenylcarbamoyl)-N'-[2-(4-chlorophenyl)ethyl]-N'-ethyl-1,3-diaminopropane] |
| 99 | CCCN(CCCNC(=O)Nc1ccccc1)CCc1ccc(Cl)cc1 [Compound 10, N-Phenylcarbamoyl-N'-[2-(4-chlorophenyl)ethyl]-N'-propyl-1,3-diaminopropane] |
| 100 | CCN(CCCNC(=O)Nc1ccc(Cl)cc1)CCc1ccc(Cl)cc1 [Compound 6] |

Same assay, conditions: U-937; 10 µM test compound; eotaxin 1 x 10^-9 M; CCR3/U937 cells (Table 3c)

| inhibition at 10 µM [%] | Compound |
| --- | --- |
| 63 | CC[N+](CCCNC(=O)Nc1ccc(Br)cc1)(CCCC(=O)O)[C@@H](C)c1ccccc1 (stereo partly drawn) [Compound 315, [3-(4-Bromophenylureido)propyl][(1S)-1-phenylethyl][3-(carboxy)propyl]ethylammonium trifluoroacetate] |

Same assay, conditions: test compound 0.1 µg/ml; eotaxin 1 x 10^-9 M; CCR3/U937 transfectants; 37 °C, 1 hour

| Chemotaxis Assay 0.1 µg/ml (inhibition %) [%] | Compound |
| --- | --- |
| 76 | CC[N+](CCF)(CCCNC(=O)Nc1ccccc1)CCc1ccc(Cl)cc1Cl.[I-] (stereo not drawn) [compound 433] |
| 43 | CC[N+](CCF)(CCCNC(=O)Nc1ccc(Br)cc1)CCc1ccc(Cl)cc1Cl.[I-] (stereo not drawn) [compound 383] |
| 86 | CC[N+](CCF)(CCCNC(=O)Nc1ccc(Cl)c(Cl)c1)CCc1cccc(F)c1.[I-] (stereo not drawn) [compound 371] |
| 76 | CC[N+](CC#N)(CCCNC(=O)Nc1ccc(Br)cc1)CCc1cccc(Cl)c1.[I-] (stereo not drawn) [compound 372] |
| 65 | CC[N+](CCCNC(=O)Nc1ccc(C(F)(F)F)cc1)(CCOCCOC)CCc1cccc(F)c1.[I-] (stereo not drawn) [compound 389] |
| 99 | CC[N+](CCCNC(=O)Nc1ccccc1)(CCOCCOC)CCc1ccc(Cl)c(Cl)c1.[I-] (stereo not drawn) [compound 415] |

Target: T1, CCR-3
Experiment: Calcium mobilization assay (inhibition of eotaxin-induced intracellular calcium mobilization in CCR3/HEK293 cells)
Assay type: cell-based
Design: expressed in transfected cells
Conditions: 1.25 µg/ml test compound; eotaxin 10 nM; CCR3/HEK293 cells (Table 2b)
Protocol: Compounds 93-162 used in this assay were synthesized by using the method described in Example 6.
CCR-3 transfectant cells (CCR3/HEK293) were isolated and resuspended with assay buffer (20 mM HEPES, 125 mM NaCl, 5 mM KCl; 0.5 mM glucose, 1 mM CaCl2, 1 mM MgCl2, 0.1 % BSA). After washing CCR3/HEK293 cells with assay buffer, cells were loaded with Fura-2/AM in assay buffer for 1 hour at room temperature. Cells were washed and resuspended with assay buffer at 5 x 10^6 cells/ml in assay buffer, and placed in a tissue culture plate (Falcon, no. 3296). Test compounds dissolved in DMSO were added to the wells, followed by eotaxin (10 nM at final concentration). Cells were excited at 340 nm and 380 nm in a fluorimeter (ARGUS50, FDSS2000, Hamamatsu Photonics) and the relative ratio of the fluorescence emitted at 510 nm was recorded. For a control, DMSO without a test compound was added. Intracellular calcium mobilization was calculated as described in Krogel C. et al. , FEBS Let. (1989) 243 , 41-46.

| Ca^2+ mobilization 1.25 µg/ml (inhibition %) [%] | Compound |
| --- | --- |
| 70 | CC[N+](CCCNC(=O)Nc1ccc(Cl)c(Cl)c1)(CCc1cccc(Cl)c1)CC1CCC1.[I-] (stereo not drawn) [compound 361] |
| 70 | CC[N+](CCCNC(=O)Nc1ccc(C#N)cc1)(CCc1ccc(Cl)cc1Cl)CC1CCC1.[I-] (stereo not drawn) [compound 398] |
| 57 | CC[N+](CCCNC(=O)Nc1ccc(Cl)c(Cl)c1)(CCOCCOC)CCc1ccc(Cl)cc1Cl.[I-] (stereo not drawn) [compound 357] |
| 67 | CC[N+](CCCNC(=O)Nc1ccc(C#N)cc1)(CCOCCOC)CCc1ccc(Cl)c(Cl)c1.[I-] (stereo not drawn) [compound 396] |
| 64 | CC[N+](CCCNC(=O)Nc1ccc(OC)cc1)(CCc1ccc(Cl)c(Cl)c1)CC(N)=O.[I-] (stereo not drawn) [compound 437] |
| 58 | C=C(C)C[N+](CC)(CCCNC(=O)Nc1ccc(C#N)cc1)CCc1cccc(Cl)c1.[I-] (stereo not drawn) [compound 399] |
| 49 | CC[N+](CCCNC(=O)Nc1ccc(Cl)c(Cl)c1)(CCc1ccc(Cl)cc1Cl)CC1CCC1.[I-] (stereo not drawn) [compound 362] |
| 62 | CC[N+](CCCNC(=O)Nc1ccc(OC)cc1)(CCc1ccc(Cl)cc1)CC1CCC1.[I-] (stereo not drawn) [compound 440] |
| 63 | C=C(C)C[N+](CC)(CCCNC(=O)Nc1ccc(OC)cc1)CCc1cccc(Cl)c1.[I-] (stereo not drawn) [compound 445] |
| 76 | C=C(C)C[N+](CC)(CCCNC(=O)Nc1ccc(OC)cc1)CCc1ccc(Cl)cc1Cl.[I-] (stereo not drawn) [compound 446] |
| 56 | CC[N+](CCCNC(=O)Nc1ccc(Cl)c(Cl)c1)(CCc1ccc(Cl)c(Cl)c1)CC1CCC1.[I-] (stereo not drawn) [compound 363] |
| 65 | C=C(C)C[N+](CC)(CCCNC(=O)Nc1ccc(Cl)c(Cl)c1)CCc1cccc(Cl)c1.[I-] (stereo not drawn) [compound 365] |

Same assay, conditions: 6.25 µg/ml test compound; eotaxin 10 nM; CCR3/HEK293 cells (Table 2a)

| Ca^2+ mobilization 6.25 µg/ml (inhibition %) [%] | Compound |
| --- | --- |
| 55 | O=C(NCCCN(CCc1ccc(Cl)c(Cl)c1)CC1CCCCC1)Nc1cccc(Cl)c1 [Compound 154] |
| 51 | O=C(NCCCN(CCc1c[nH]cn1)CC1CCCCC1)Nc1cccc(Cl)c1 [Compound 147] |
| 54 | Cc1ccc(CCN(CCCNC(=O)Nc2cccc(Cl)c2)CCOCc2ccccc2)cc1 [Compound 152] |
| 59 | CCOC(=O)C1CC1CN(CCCNC(=O)Nc1cccc(Cl)c1)CCc1ccc(C)cc1 (stereo not drawn) [Compound 153] |
| 53 | COc1ccc(NC(=O)NCCCN(CCCSC)C2CCCc3ccccc32)c(OC)c1 (stereo not drawn) [Compound 157] |
| 57 | O=C(NCCCN(CCOCc1ccccc1)CCc1c[nH]cn1)Nc1cccc(Cl)c1 [Compound 148] |
| 51 | CSCCCN(CCCNC(=O)Nc1ccc(Br)cc1)Cc1ccc(C(F)(F)F)cc1 [Compound 130] |
| 53 | O=C(NCCCN(CCOCc1ccccc1)C1CCCc2ccccc21)Nc1ccc(Br)cc1 (stereo not drawn) [Compound 123] |
| 59 | O=C(NCCCN(CCc1ccc(Cl)c(Cl)c1)C[C@@H]1CCCN1)Nc1ccc(Br)cc1 [Compound 134] |
| 58 | CSCCCN(CCCNC(=O)Nc1cccc(C)c1)CCc1ccc(Cl)c(Cl)c1 [Compound 142] |
| 53 | CSCCCN(CCCNC(=O)Nc1ccccc1-c1ccccc1)CCc1ccccc1 [Compound 105] |
| 65 | COc1ccc(CCN(CCCNC(=O)Nc2cccc(C)c2)CCCSC)cc1OC [Compound 139] |
| 58 | COC(=O)CCCN(CCCNC(=O)Nc1ccc(Cl)c(Cl)c1)Cc1ccc2c(c1)OCO2 [Compound 160] |
| 55 | CC(C)CN(CCCNC(=O)Nc1ccc(Cl)c(C(F)(F)F)c1)CCc1ccccc1 [Compound 95] |
| 51 | O=C(NCCCN(C[C@@H]1CCCN1)C1CCCc2ccccc21)Nc1ccccc1-c1ccccc1 (stereo partly drawn) [Compound 98] |
| 63 | O=C(O)CCCN(CCCNC(=O)Nc1ccccc1-c1ccccc1)Cc1ccc2c(c1)OCO2 [Compound 101] |
| 51 | COc1ccc(NC(=O)NCCCN(CCOCc2ccccc2)CCc2ccc(OC)c(OC)c2)cc1 [Compound 159] |
| 52 | COc1cc(CN(CCCNC(=O)Nc2ccc(Br)cc2)CCC(C)C)cc(OC)c1OC [Compound 131] |
